The record followed here is patent US20020159994A1, “Biotin derivatives” (priority 2000, published 2002).

The test concerns the target T1, Mitra Avidin-Agarose (Gallus gallus, UniProt P02701).
T1 construct: Mitra (Mitra Medical Technology AB)
Kind of test: Adsorption of biotin-trimer to avidin-agarose column (conditioning, ELISA of recirculated fluid). Format: binding. More on the design: biotin-trimer bound if one biotin-trimer is bound per available binding site: unit not given here. As to the method: Two mL of Mitra Avidin-Agarose was packed into a column housing and was washed with >10 mL of PBS at a flow rate of 1 mL/min (1.6 cm/min). Five mL of a 1 mg/mL solution of biotin-trimer in PBS was recirculated through the avidin-column at 1 mL/min for 20 minutes. At end of the recirculation, a sample (0.5 mL) was drawn from the recirculated solution and analysed by an ELISA technique developed by Mitra Medical Technology AB. The biotin-avidin-agarose-column was washed with phosphate buffer at 1 mL/min for 20 minutes. By determining the concentration of biotin-trimer in the recirculated fluid, the amount of adsorbed biotin-trimer was estimated to about 1.9 mg i.e. […] of gel at the end of recirculation.
Biotin-trimer was adsorbed to 2 mL of Mitra Avidin-Agarose. […] If one biotin-trimer is bound per available binding site this would correspond to […] biotin-trimer/mL. As about 0.95 mg biotin-trimer was bound per mL avidin-agarose it can be assumed that the adsorbent was saturated with biotin-trimer.

T1 sequence (P02701 25-152): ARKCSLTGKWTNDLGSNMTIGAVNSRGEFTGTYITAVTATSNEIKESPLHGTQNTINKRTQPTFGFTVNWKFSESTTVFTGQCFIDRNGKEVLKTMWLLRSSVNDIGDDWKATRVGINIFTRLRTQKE

Turning to `O=C(CCCCC1OCC2NC(=O)NC21)NCCOCCOCCNC(=O)c1cc(C(=O)NCCOCCOCCNC(=O)CCCCC2OCC3NC(=O)NC32)cc(C(=O)NCCOCCOCCNC(=O)CCCCC2OCC3NC(=O)NC32)c1` (stereo not shown) [biotin-trimer], the “biotin-trimer bound per mL avidin-agarose” value (2 mL Mitra Avidin-Agarose) was “about 0.95 mg per mL avidin-agarose”. Also, under “2 mL Mitra Avidin-Agarose, 5 mL of 1 mg/mL biotin-trimer in PBS recirculated at 1 mL/min for 20 minutes”, the “amount of adsorbed biotin-trimer at end of recirculation” value is “about 1.9 mg”. The same compound had an amount of adsorbed biotin-trimer per mL of gel (2 mL Mitra Avidin-Agarose, end of 20 min recirculation) of approximately 0.95 mg/mL. Besides, the “biotin-trimer bound if one biotin-trimer is bound per available binding site” value (theoretical, from static biotin binding capacity) is listed as 514.
